Laboratory results taken from patent US10420758B2, “Indolinyl-sulfonamide inhibitors of tankyrase and methods of use thereof” (The Board of Regents of the University of Texas System, priority 2015, dated 2019).

Test system: Dvl2
Experiment: Ligand-dependent phosphorylation of Dvl2
Type: cell-based, human
Conditions: HeLa cells, FIG. 4E
Source text: FIGS. 4A-4F show Tnks inhibitors induce telomeric stress in human cells independently of Wnt/β-catenin pathway inhibition. (FIG. 4A) Porcn inhibitors afford a Tnks-independent approach to disrupting Wnt/β-catenin signaling. Chemicals targeting the Wnt acyltransferase Porcn abrogate Wnt palmitoylation which in turn results in loss of activity of the Frizzled (Fzd) family of Wnt receptors. Fzd receptors directly induce activation of the cytoplasmic signaling molecule Dishevelled (Dvl) in a ligand-dependent manner, which in turn results in activation of β-catenin and transcription mediated by the TCF family of DNA binding proteins. IWP-2 and the clinical candidate LGK-974 represent two structurally distinct Porcn inhibitors. (FIG. 4B) Tnks but not Porcn inhibitors induce DNA damage at telomeres. The appearance of co-localized Terf2 and pH2A.X (an indicator of DNA damage at the telomere ends; Telomere Induced Foci or TIFs) was scored using indirect immunofluorescence in Hela cells (expressing wild-type Apc protein). (FIG. 4C) Quantification of results represented in “B”. Cells with >5 TIFs were scored as positive for telomeric damage (left bars). Mean total phosphorylated H2A.X (γ H2A.X) was used to measure general DNA damage responses (right bars). […] Digital droplet-based telomerase extension analysis of genomic DNA isolated from HeLa cells treated for 24 hrs with indicated compounds. […]

Cc1ccc2nc(NC(=O)CSc3nc4c(c(=O)n3-c3ccccc3)SCC4)sc2c1 [IWP-2]
ligand-dependent phosphorylation of Dvl2: block ligand-dependent phosphorylation of Dvl2

Cc1cc(-c2ncc(CC(=O)Nc3ccc(-c4cnccn4)cn3)cc2C)ccn1 [LGK-974]
ligand-dependent phosphorylation of Dvl2: block ligand-dependent phosphorylation of Dvl2
